The text below walks through data of patent publication US11708562B2, “Differentiation of human embryonic stem cells” (Janssen Biotech, Inc., priority 2006, dated 2023).

Values joined by “and” are separate entries in the source; they are usually repeats but may differ in a detail not shown here. Identical values can stand only once.

Assay [1] concerns H7P44 and H9P46 embryonic stem cells. The assay is described as follows: Definitive endoderm on […]: role of Wnt ligands (FACS CXCR4, real-time PCR). The class given is cell-based, human. To be noted: H7 and H9; low serum+AA+/-Wnt ligands. On the procedure: In some of the cultures 20 ng/ml Wnt-3a (Catalog #1324-WN-002, R&D Systems, MN), 20 ng/ml Wnt-5a (Catalog #654-WN-010, R&D Systems, MN), 25 ng/ml Wnt-7a (Catalog #3008-WN-025, R&D Systems, MN), or 25 ng/ml Wnt-5b (Catalog #3006-WN-025, R&D Systems, MN) was added throughout the five day treatment. FIGS. 24A and 24B depicts phase contrast images of H9P46 definitive endoderm culture in the presence of high concentration of (a) AA or (b) AA+20 ng/ml Wnt-3a. FIGS. 25A, 25B, 25C and 25D depicts the expression of CXCR4 by FACS at day 5 for H7P44, and H9P46 lines cultured on […]™ (1:30 dilution) and exposed to the DE protocol+Wnt-3a (FIGS. 25B and 25D) and -Wnt-3a (FIGS. 25A and C).

In assay [2] the test system is H9P46 embryonic stem cells. In words: Definitive endoderm on […]: effective dose of Wnt-3a (FACS, PCR, cell number). The format is cell-based, human. On the procedure: Control cultures were not treated with Wnt-3a. FIG. 27A depicts the expression of CXCR4 by FACS at day 5 in the absence of Wnt-3a, b) 10 ng/ml Wnt-3a, c) 20 ng/ml Wnt-3a and d) 50 ng/ml Wnt-3a. In the absence of Wnt-3a the expression of CXCR4 was very low. […] Real-time PCR results (FIG. 28A) also confirm this finding.
In a separate study, H9p52 cells were plated on 1:30 low growth factor […]™. For the first 2 days of the DE protocol a range of Wnt3A doses was used: 10 ng/ml, 5 ng/ml and 1 ng/ml. […] The number of cells at the end of the experiment is noted in FIG. 28C.

For assay [3], the system named is H9P46-P48 embryonic stem cells. The assay is described as follows: Definitive endoderm on […]: effect of GSK-3B inhibitor (FACS CXCR4, PCR). The format is cell-based, human. To be noted: 20 ng/ml of Wnt-3a or 100-1000 nM GSK-3B inhibitor. The procedure: In order to confirm that the effect of Wnt-3a was through the Wnt pathway, a GSK-3 inhibitor was used to activate the downstream targets of Wnt, such as beta catenin. […] FIG. 29A depicts the expression of CXCR4 by FACS at day 5 in the absence of Wnt-3a or GSK-3B inhibitor, b)+20 ng/ml Wnt-3a, c)+1000 nM GSK-3B inhibitor IX, d)+500 nM GSK-3B inhibitor IX, e)+100 nM GSK-3B inhibitor IX, f)+10 nM GSK-3B inhibitor IX, g)+100 nM GSK-3B inhibitor IX for days 1-2, and h)+10 nM GSK-3B inhibitor IX for days 1-2.

Assay [4] has as its system H9P53 embryonic stem cells. In words: Definitive endoderm on […]: combination of Wnt-3a, GSK-3B inhibitor, BMP-4. To be noted: Wnt-3A plus GSK inhibitor in the presence of activin A. The class given is cell-based, human. The text has this: Results are expressed as fold increase over untreated cells. […] Results are expressed as fold increase over untreated cells.
In assay [5] the test system is H9P44 cells. In words: Definitive endoderm on MEFs with growth factor combinations: RT-PCR of definitive endoderm markers (Table V). The format is cell-based, human. To be noted: H9P44 on MEF. The procedure:
H9P44 cells were plated onto 6 well plates previously coated with mitomycin treated mouse embryonic fibroblasts (MEF). Cells were grown until 70 to 80% confluency in ES cell medium consisting of DMEM/F12 (Invitrogen/GIBCO) supplemented with 20% knockout serum replacement, 100 nM MEM nonessential amino acids, 0.5 mM beta-mercaptoethanol, 2 mM L-glutamine (all from Invitrogen/GIBCO) and 8 ng/ml human basic fibroblast growth factor (bFGF) (R&D Systems).
Growth factors were added to increasing concentration of FBS in a stepwise manner as indicated in the following regimen:
All growth factors were purchased from R&D Systems, MN. A detailed description and concentration of growth factors for each treatment group is shown below. • 1. Control—No growth factor added • 2. […] IL-4 (10 ng/ml) • 10. SDF1a (20 ng/ml) • 11. […] BMP2 (100 ng/ml)+BMP-4 (100 ng/ml)+BMP-6 (100 ng/ml)+BMP-7 (100 ng/ml) • 13.
For RT-PCR analysis, cells were analyzed for expression of selected panel of definitive endoderm markers.

In assay [6] the test system is H9 cultures. The assay is described as follows: Definitive endoderm on varying concentrations of […] with Wnt-3a (real-time PCR). The format is cell-based, human. To be noted: low serum, 100 ng/ml activin A and 20 ng/ml Wnt-3a. The procedure:
H9 cells were cultured on plates coated with regular […] at a 1:60 to 1:10 dilution. The plates were coated with […] for 1 hr at room temperature.
(In qPCR the cycle at which signal appears reflects the starting amount.)

In assay [7] the test system is human embryonic stem cell line H9. The assay is described as follows: Cells from […] differentiated on MEFs: role of Wnt-3a (real-time PCR, FACS). The class given is cell-based. The procedure:
Cells from the human embryonic stem cell line H9 cultured on […]™ for at least five passages were seeded onto MEF feeders in ES media.
At day 3 and 5, the cultures were analyzed by real time PCR for SOX-17, SOX-7, Alpha-fetal protein (AFP), CXCR4, Brychyury (Bry), gooscecoid (GSC), HNF-3 beta, GATA4, hTERT and Oct4. AFP and SOX-7 are regarded as visceral endoderm markers while GATA4, HNF-3beta and SOX-17 represent definite endoderm markers and GSC, Bry, and CXCR4 represent markers of primitive streak. hTERT and Oct-4 are markers for self renewal and pluripotency respectively. FACS analysis was also performed at day 3 and 5.

The subject of assay [8] is H9 embryonic stem cells. The assay is described as follows: Immunofluorescence staining of DE markers +/- Wnt-3a. The format is cell-based, human. From the text:
Day 5 DE cultures of H9 cells were stained according to Example 10 for SOX-17, HNF-3B, GATA-4, N-cadherin, and E-cadherin. All nuclei were counter stained with DAPI.

The test system of assay [9] is SA002 P38 cells. In words: Differentiation of SA002 ES line on […] to definitive endoderm. The class given is cell-based, human. To be noted: 20 ng/ml Wnt-3a. From the text: Expression of CXCR4 is depicted in FIGS. 45A, 45B and 45C: a) AA treatment b) AA+Wnt-3a c) AA+GSK-3B inhibitor.
Assay [10] relates to human embryonic stem cell line H1 at passage 55. The assay is described as follows: Definitive endoderm on human serum coated plates (real-time PCR). The class given is cell-based. The procedure:
Cultures of the human embryonic stem cell line H1 at passage 55 were grown and differentiated on human serum (Sigma, # H1388, MO) coated plates. 0.5 ml of human serum was added to each well of 6 well tissue culture treated dish, incubated for 1 hr at room temperature, and aspirated before adding human embryonic stem cells. […] These findings parallel our findings for human embryonic stem cells cultured on […]™ or human fibronectin coated plates.

In assay [11] the test system is human embryonic stem cell line H9. In words: Cytokine array of cell lysates and conditioned media +/- Wnt3a (Table VII). Details: unit not given here. To be noted: 100 ng/ml Activin A + 10 ng/ml Wnt3a. The class given is cell-based. The procedure: The effect that Wnt-3a treatment has on cytokine expression was analyzed using a protein array. Cells of the human embryonic stem cell line H9 were cultured according to the methods described in Example 15. […] Cell lysates were prepared from cells of each treatment group, with a mammalian cell lysis kit (Sigma-Aldrich, MO). Conditioned media from each treatment group was collected and concentrated. Cytokine array analysis was completed using Cytokine Array panels provided by RayBiotech, GA (http://www.raybiotech.com/). Table VII lists cytokine, growth factor, and receptor expression following normalization of the data and background subtraction. For each panel, positive and negative controls are also included.

Assay [12] relates to H9P49 embryonic stem cells. The assay is described as follows: Pancreatic endoderm under feeder-free conditions: evaluation of retinoic acid analogues (PCR). The format is cell-based, human. To be noted: 10 μM AM-580.
Description: At day 5, cells were collected for evaluation by FACS and real-time PCR. […] The resulting definitive endoderm cells at day 5 were exposed to the following media conditions to induce pancreatic endoderm formation: culturing in DMEM/F12 media supplemented with 2% FBS and 1 μM all-trans retinoic acid (RA) (Catalog # R2625, Sigma, MO), or 0.1-10 μM AM-580 (4-[(5,6,7,8-Tetrahydro-5,5,8,8-tetramethyl-2-naphthalenyl)carboxamido]benzoic acid, Catalog # A8843, Sigma, MO), or 0.1-1 μM TTNPB (4-[(E)-2-(5,6,7,8-Tetrahydro-5,5,8,8-tetramethyl-2-naphthalenyl)-1-propenyl]benzoic acid Arotinoid acid, Catalog # T3757, Sigma, MO) for 3 days. AM-580 and TITNPB are retinoic acid analogs with affinity for retinoic acid receptors. RA treatment was followed by additional three day treatment in DMEM/F12 media supplemented with 2% FBS and 20-50 ng/ml bFGF (Catalog # F0291, Sigma, MO). Cultures were harvested and samples of mRNA were collected for analysis.

On to Wnt-3a, for which the “expression of definitive endoderm markers (real-time PCR)” value in assay [1] was “significant upregulation”. In assay [2] (10-50 ng/ml of Wnt-3a, day 5), the “number of CXCR4 positive cells (FACS)” value is recorded as “significantly increased”. In addition, the “Wnt3a dose sufficient for optimal cell expansion and definitive endoderm differentiation” value in [2] (H9p52, for 2 days) turned out to be 10 ng/mL. Also, the “expression of CXCR4 (FACS)” value in assay [2] (absence versus 10 and 50 ng/ml Wnt-3a: 10 ng/ml compared with 50 ng/ml) is given as “as effective as”. In assay [3], the “number of CXCR4 positive cells (FACS)” value was “significantly increased”. The “definitive endoderm markers, combination versus each agent by itself” value in assay [4] was “do not lead to significant upregulation”. Moreover, the “definitive endoderm markers on addition to high dose activin A in low serum” value in [5] was “no significant upregulation”. In addition, the “expression of CXCR4, GATA4, Goosecoid, HNF-3beta, and SOX-17 genes” value in assay [6] is reported as “led to the expression”. Also, the “role in differentiation of cells cultured on MEFs to definitive endoderm” value in assay [7] is “does not appear to play a significant role”. Besides, the “nuclei stained positive for SOX-17, HNF-3beta and GATA-4” value in assay [8] (20 ng/ml Wnt-3a, day 5) is given as “significantly larger number”. The expression of e-cadherin result in [8] (addition of Wnt-3a) is “significant loss of expression”. For the same compound, the “expression of DE markers” value in assay [9] is on record as “required addition of Wnt-3A for robust expression of DE markers”. The “expression of definitive endoderm markers compared to activin A only” value in [10] is on record as “Robust expression”. Further, in assay [11] (cell conditioned media), the Axl expression is 610.40 and 748.34; the IL-1beta expression is 316.59 and 278.30; the IL-1ra expression was 354.23 and 581.75. In [11] (cell lysate), the Axl expression was 88.59 and 139.03; the IL-1beta expression is 352.05 and 312.08; the IL-1ra expression is 302.68 and 198.48.

As for `CC1(C)CCC(C)(C)c2cc(C(=O)Nc3ccc(C(=O)O)cc3)ccc21` [AM-580, 4-[(5,6,7,8-Tetrahydro-5,5,8,8-tetramethyl-2-naphthalenyl)carboxamido]benzoic acid], the “expression of PDX-1” value in assay [12] is on record as “maintaining a high expression”.
